Test results reported in paper PMC11851430, “Workflow for E3 Ligase Ligand Validation for PROTAC Development” (ACS Chemical Biology, 2025).

Legend:
AURKA^HiBiT = target: T1, AURKA^HiBiT (Homo sapiens, UniProt O14965); experiment: HiBiT assay, MV4-11 cells expressing AURKA^HiBiT; type: cell-based; settings: 6 h; for AURKA^HiBiT protein levels: MV4-11 cells; for rescue of AURKA degradation by cotreatment with proteasome inhibitor MG132 / rescue of AURKA levels by cotreatment with neddylation inhibitor MLN4924: MV4-11 AURKA^HiBiT cells
T1 construct: expressed in transfected cells
T1 sequence (O14965 1-403): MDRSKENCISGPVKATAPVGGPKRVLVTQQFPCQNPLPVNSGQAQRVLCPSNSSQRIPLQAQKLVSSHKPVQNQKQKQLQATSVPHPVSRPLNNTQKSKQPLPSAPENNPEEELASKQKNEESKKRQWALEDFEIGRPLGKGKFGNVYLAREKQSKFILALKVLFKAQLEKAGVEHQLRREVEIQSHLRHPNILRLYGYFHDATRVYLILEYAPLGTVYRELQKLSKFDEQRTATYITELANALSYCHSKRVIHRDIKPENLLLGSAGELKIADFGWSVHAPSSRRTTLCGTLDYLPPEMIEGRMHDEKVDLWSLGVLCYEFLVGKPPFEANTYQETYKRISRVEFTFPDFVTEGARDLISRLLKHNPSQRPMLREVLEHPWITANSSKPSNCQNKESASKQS
Procedure: The blots were incubated with respective primary antibodies at 1:1000 dilution (Cell Signaling technologies: Aurora A (D3E4Q), ITK (2F12) and GAPDH (D4C6R)) at 4 °C overnight. The blots were washed with TBS-T thrice and incubated with 1:5000 dilution of horseradish peroxidase (HRP)-labelled respective secondary antibodies (Cell Signaling technologies, Anti- […]
The blots were washed with TBS-T thrice and then incubated with chemiluminescent HRP substrate (Bio-Rad) for 2 minutes. The blots were imaged and the signals were detected using the Amersham ImageQuant 800 (Cytiva).
Cell culture. Human MV4-11 ([…]) and human Jurkat ([…]) cells were cultured in RPMI- […]
°C in 5% CO2. Both media were supplemented with 10% FBS and 1% penicillin/streptomycin. […]
Cell line generation. The stable cell line MV4-11 AURORA−HiBiT was generated as previously described.14 Lentiviral infection was used to generate the stable Jurkat HiBiT cell line. […] HiBiT Measurements. HiBiT assay was performed as described previously. 14 Briefly, MV4-11 and Jurkat HiBiT cells were seeded and treated with compounds for the indicated time. Nano-Glo HiBiT Lytic Detection System (Promega) was used for the assay and luminescence was measured on a Tecan Spark Multiplate reader (Tecan). DC50s were calculated using the dose-response (four parameters) equation in Prism (GraphPad).

ABL1 = target: T2, ABL1 (Homo sapiens, UniProt P00519); experiment: Kinobeads selectivity profiling; type: binding; settings: Jurkat lysate, dose series given in nM, read-out: Kd (apparent dissociation constant, corrected for protein depletion)
T2 construct: endogenous in cells; host or cells: Jurkat (Clone E6.1) cell lysate
T2 sequence (P00519 whole entry): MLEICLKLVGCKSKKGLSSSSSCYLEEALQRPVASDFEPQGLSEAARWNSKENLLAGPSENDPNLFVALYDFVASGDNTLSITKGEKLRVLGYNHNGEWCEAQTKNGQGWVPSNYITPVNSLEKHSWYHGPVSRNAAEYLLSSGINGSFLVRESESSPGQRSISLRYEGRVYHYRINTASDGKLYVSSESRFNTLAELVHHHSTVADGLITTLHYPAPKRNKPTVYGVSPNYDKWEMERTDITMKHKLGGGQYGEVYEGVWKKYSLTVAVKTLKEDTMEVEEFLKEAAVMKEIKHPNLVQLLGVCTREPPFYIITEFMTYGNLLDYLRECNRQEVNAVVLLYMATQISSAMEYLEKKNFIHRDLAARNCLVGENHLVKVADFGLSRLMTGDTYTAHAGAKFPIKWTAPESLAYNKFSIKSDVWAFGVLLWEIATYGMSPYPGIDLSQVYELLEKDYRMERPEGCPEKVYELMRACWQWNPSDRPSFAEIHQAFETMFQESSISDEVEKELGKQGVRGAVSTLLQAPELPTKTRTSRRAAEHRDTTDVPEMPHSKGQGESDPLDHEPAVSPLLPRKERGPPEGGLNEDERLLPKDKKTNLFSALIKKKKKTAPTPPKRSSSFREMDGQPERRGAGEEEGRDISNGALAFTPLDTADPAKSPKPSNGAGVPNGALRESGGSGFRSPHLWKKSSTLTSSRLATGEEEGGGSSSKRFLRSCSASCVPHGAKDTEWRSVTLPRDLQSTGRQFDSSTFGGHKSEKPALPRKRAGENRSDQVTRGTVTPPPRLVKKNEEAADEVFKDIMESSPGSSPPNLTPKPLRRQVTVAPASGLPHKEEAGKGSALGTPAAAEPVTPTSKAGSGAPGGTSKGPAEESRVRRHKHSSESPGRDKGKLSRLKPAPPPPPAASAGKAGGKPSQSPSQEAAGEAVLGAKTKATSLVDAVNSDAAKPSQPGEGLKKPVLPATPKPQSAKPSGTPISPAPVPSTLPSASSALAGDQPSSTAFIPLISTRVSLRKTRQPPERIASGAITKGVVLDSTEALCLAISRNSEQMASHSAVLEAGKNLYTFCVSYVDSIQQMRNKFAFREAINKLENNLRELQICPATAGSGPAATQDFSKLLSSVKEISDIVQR
Procedure: Excitation and emission filters […]
curve. […] Measurements were
Kinobeads selectivity profiling of PROTACs
(Multiplexion, Heidelberg, Germany).
The cell lysate was ultracentrifuged and diluted
NaF, 1 mM DTT, protease inhibitors and phosphatase inhibitors to a final concentration of 5 mg/ml as determined by Bradford assay. For selectivity profiling of compounds the cell lysate (2.5 mg of total proteins per pulldown) was pre-incubated with increasing compound […]
µM) for 45 min at 4 °C in an end-over-end shaker. Subsequently, lysates were incubated with Kinobeads epsilon (17 µL settled beads) for 30 min at 4 °C. To assess the degree of protein depletion from the lysates by Kinobeads, the flow-through of the DMSO control was recovered […]
for a pulldown of pulldown experiment where the lysate was incubated a second time with fresh Kinobeads. Beads were washed in 3 steps with buffer containing 0.4%, 0.2% and no NP40.
Bound proteins were reduced with 50 mM DTT in 8 M Urea, 40 mM Tris-HCl pH 7.4 for 30 min at room temperature. After alkylation with 55 mM chloroacetamide (CAA), the Urea concentration was reduced to 1 – 2 M and proteins were digested using trypsin. Acidified peptides were desalted and concentrated using SepPak tC18 µEluation plates (Waters).
Samples were frozen, dried by vacuum centrifugation and stored at -20 °C.
LC-MS2 analysis. Peptides were measured on a Dionex Ultimate3000 nano HPLC coupled online to an Orbitrap Fusion Lumos (Thermo Fisher Scientific) mass spectrometer.
Peptides were dissolved in 0.1% formic acid and delivered to a trap column (ReproSil-pur C18-AQ, 5 μm, Dr. Maisch, 20 mm × 75 μm, self-packed) at a flow rate of 5 μL/min in LC solvent A (0.1 % formic acid).4 After 10 min of loading, peptides were transferred to an analytical column (ReproSil Gold C18-AQ, 3 μm, Dr. Maisch, 400 mm × 75 μm, self-packed) and separated using […]
acetonitrile) in LC solvent A.
The Orbitrap Fusion Lumos was operated as follows: positive polarity; spray voltage 2.1 kV, […]
A full-scan (MS1) was recorded from 360 to 1300 m/z with a resolution of 60,000 in the Orbitrap in profile mode. The MS1 AGC target was set to 4e5 and the maxIT was set to 50 ms, RF lens value was set to 50%. Based on the full scans, precursors were targeted for the MS/MS scans […]
intensity exceeded 2.5e4. The dynamic exclusion was set to 30 sec and exclude isotopes was switched on. The MS2 quadrupole isolation window was set to 1.7 m/z. Peptide fragmentation occurred in the ion routing multipole (IRM) by HCD with a fixed collision energy mode, the […]

Row | SMILES | AURKA^HiBiT protein levels (AURKA^HiBiT) | Kd (ABL1) [nM] | rescue of AURKA degradation by cotreatment with proteasome inhibitor MG132 (AURKA^HiBiT) | rescue of AURKA levels by cotreatment with neddylation inhibitor MLN4924 (AURKA^HiBiT)
1 | Cc1ncsc1-c1ccc(CNC(=O)[C@@H]2C[C@H](O)CN2C(=O)[C@@H](NC(=O)CCOCCOCCOCCN2CCN(c3cc(Nc4cc(C5CC5)[nH]n4)nc(Nc4ccc(CC#N)cc4)n3)CC2)C(C)(C)C)cc1 [4-a^neg] | weak reduction of AURKA levels | – | – | –
2 | CC(C)(C)OC(=O)NCCOCCOCCOCCOCCC(=O)N1CCN(c2cc(Nc3cc(C4CC4)[nH]n3)nc(Nc3ccc(CC#N)cc3)n2)CC1 [4-L] | – | 2200 | – | –
3 | Cc1ncsc1-c1ccc(CNC(=O)[C@@H]2C[C@@H](O)CN2C(=O)[C@@H](NC(=O)CCOCCOCCOCCN2CCN(c3cc(Nc4cc(C5CC5)[nH]n4)nc(Nc4ccc(CC#N)cc4)n3)CC2)C(C)(C)C)cc1 [4-a] | dose-dependent degradation of AURKA | – | complete rescue | only partial rescue
4 | Cc1ncsc1-c1ccc(CNC(=O)[C@@H]2C[C@@H](O)CN2C(=O)[C@@H](NC(=O)CCOCCOCCOCCOCCN2CCN(c3ccc(Nc4ncc(Cl)c(Nc5ccccc5C(N)=O)n4)cc3)CC2)C(C)(C)C)cc1 [6-b] | dose-dependent degradation of AURKA | – | complete rescue | only partial rescue
5 | Cc1ncsc1-c1ccc(CNC(=O)[C@@H]2C[C@H](O)CN2C(=O)[C@@H](NC(=O)CCOCCOCCOCCOCCN2CCN(c3ccc(Nc4ncc(Cl)c(Nc5ccccc5C(N)=O)n4)cc3)CC2)C(C)(C)C)cc1 [6-b^neg] | weak reduction of AURKA levels | – | – | –
6 | CC(C)(C)OC(=O)NCCCOCCOCCOCCCNC(=O)c1cc(Nc2cc(C3CC3)[nH]n2)nc(Nc2ccc(CC#N)cc2)n1 [5-L] | – | 4950 | – | –
